Data taken from patent US9445594B2, “Molecules having certain pesticidal utilities, intermediates, compositions, and processes, related thereto” (priority 2014, dated 2016).
Like-named read-outs stand apart in the source and are kept apart here.

Experiments:
Format in all cases: in vivo
[1] = tested on: Cabbage Looper (Trichoplusia ni, TRIPNI) ("CL"); test: Bioassays on CL, 128-well diet tray assay; details: 168 h, read-out: CL % Control (or Mortality) rating
Protocol: (§1) Certain molecules disclosed in this document were tested against BAW, CEW, and CL using procedures described in the following examples. In the reporting of the results, the “BAW, CEW, & CL Rating Table” was used (See Table Section).
Bioassays on CL were conducted using a 128-well diet tray assay. one to five second instar CL larvae were placed in each well (3 mL) of the diet tray that had been previously filled with 1 mL of artificial diet to which 50 μg/cm^2 of the test compound (dissolved in 50 μL of 90:10 acetone-water mixture) had been applied (to each of eight wells) and then allowed to dry. Trays were covered with a clear self-adhesive cover and held at 25° C., 14:10 light-dark for five to seven days. Percent mortality was recorded for the larvae in each well; activity in the eight wells was then averaged. The results are indicated in the table entitled “Table ABC: Biological Results” (See Table Section).

[2] = tested on: Beet Armyworm (Spodoptera exigua, LAPHEG) ("BAW"); test: Bioassays on BAW, 128-well diet tray assay; details: 168 h, read-out: BAW % Control (or Mortality) rating
Protocol: as §1
Bioassays on BAW were conducted using a 128-well diet tray assay. one to five second instar BAW larvae were placed in each well (3 mL) of the diet tray that had been previously filled with 1 mL of artificial diet to which 50 μg/cm^2 of the test compound (dissolved in 50 μL of 90:10 acetone-water mixture) had been applied (to each of eight wells) and then allowed to dry. Trays were covered with a clear self-adhesive cover and held at 25° C., 14:10 light-dark for five to seven days. Percent mortality was recorded for the larvae in each well; activity in the eight wells was then averaged. The results are indicated in the table entitled “Table ABC: Biological Results” (See Table Section).

[3] = tested on: Yellow Fever Mosquito (Aedes aegypti, AEDSAE) ("YFM"); test: Bioassays on YFM, 96-well plate larval assay; details: about 1 day-old larvae, from 4000 ppm DMSO master plate diluted, room temperature, scored after 3 days
Protocol: Certain molecules disclosed in this document were tested against YFM using procedures described in the following paragraph. In the reporting of the results, the “YFM Rating Table” was used (See Table Section).
Master plates containing 400 μg of a molecule dissolved in 100 μL of dimethyl sulfoxide (DMSO) (equivalent to a 4000 ppm solution) are used. A master plate of assembled molecules contains 15 μL per well. To this plate, 135 μL of a 90:10 water:acetone mixture is added to each well. A robot (Biomek® NXP Laboratory Automation Workstation) is programmed to dispense 15 μL aspirations from the master plate into an empty 96-well shallow plate (“daughter” plate). There are 6 reps (“daughter” plates) created per master. The created daughter plates are then immediately infested with YFM larvae.
The day before plates are to be treated, mosquito eggs are placed in Millipore water containing liver powder to begin hatching (4 g. into 400 mL). After the daughter plates are created using the robot, they are infested with 220 μL of the liver powder/larval mosquito mixture (about 1 day-old larvae). After plates are infested with mosquito larvae, a non-evaporative lid is used to cover the plate to reduce drying. Plates are held at room temperature for 3 days prior to grading. After 3 days, each well is observed and scored based on mortality.

[4] = second instar larvae, 50 μg/cm^2 on artificial diet, 25° C., five to seven days, average of eight wells

| SMILES | mortality at 50 µg/cm2 [1, 4] | mortality at 50 µg/cm2 [2, 4] | YFM % Control (or Mortality) rating [3] | mortality at 50 µg/cm2 [1] | mortality at 50 µg/cm2 [2] |
| --- | --- | --- | --- | --- | --- |
| COc1ccccc1NC(=O)NCc1ccc(-c2ncn(-c3ccc(OC(F)(F)F)cc3)n2)cc1 [F106, 1-(2-Methoxyphenyl)-3-(4-(1-(4-(trifluoromethoxy)phenyl)-1H-1,2,4-triazol-3-yl)benzyl)urea] | 0% | 0% | D (No activity noticed in this bioassay) | – | – |
| Cc1ccccc1NC(=O)NCCCc1ccc(-c2ncn(-c3ccc(OC(F)(F)F)cc3)n2)cc1 [F77, 1-(o-tolyl)-3-(3-(4-(1-(4-(trifluoromethoxy)phenyl)-1H-1,2,4-triazol-3-yl)phenyl)propyl)urea] | 50 to 100% | 50 to 100% | A (80-100) | – | – |
| FC(F)(F)Oc1ccc(-n2cnc(-c3ccc(NC(=S)Nc4ncccc4-c4cccnc4)cc3)n2)cc1 [F56, 1-([3,3′-Bipyridin]-2-yl)-3-(4-(1-(4-(trifluoromethoxy)phenyl)-1H-1,2,4-triazol-3-yl)phenyl)thiourea] | 50 to 100% | 0 to 50% | D (No activity noticed in this bioassay) | – | – |
| O=C(NCc1ccc(-c2ncn(-c3ccc(OC(F)(F)F)cc3)n2)cc1)Nc1cccc(Cl)c1 [F103, 1-(3-Chlorophenyl)-3-(4-(1-(4-(trifluoromethoxy)phenyl)-1H-1,2,4-triazol-3-yl)benzyl)urea] | 50 to 100% | 0 to 50% | A (80-100) | – | – |
| CC(C)c1ccccc1NC(=S)NCCCc1ccc(-c2ncn(-c3ccc(OC(F)(F)F)cc3)n2)cc1 [F76, 1-(2-isopropylphenyl)-3-(3-(4-(1-(4-(trifluoromethoxy)phenyl)-1H-1,2,4-triazol-3-yl)phenyl)propyl)thiourea] | – | – | A (80-100) | 50 to 100% | 50 to 100% |
| CSc1ccccc1-c1ccccc1NC(=S)Nc1ccc(-c2ncn(-c3ccc(OC(F)(F)F)cc3)n2)cc1 [F42, 1-(2′-(Methylthio)-[1,1′-biphenyl]-2-yl)-3-(4-(1-(4-(trifluoromethoxy)phenyl)-1H-1,2,4-triazol-3-yl)phenyl)thiourea] | 50 to 100% | 50 to 100% | B (More than 0 - Less than 80) | – | – |
| CCOc1cccc(NC(=O)Nc2ccc(-c3ncn(-c4ccc(OC(F)(F)F)cc4)n3)cc2)c1 [F39, 1-(3-ethoxyphenyl)-3-(4-(1-(4-(trifluoromethoxy)phenyl)-1H-1,2,4-triazol-3-yl)phenyl)urea] | 50 to 100% | 0% | D (No activity noticed in this bioassay) | – | – |
| Cc1ccc(NC(=O)NCCCCc2ccc(-c3ncn(-c4ccc(OC(F)(F)F)cc4)n3)cc2)cc1 [F99, 1-(p-Tolyl)-3-(4-(4-(1-(4-(trifluoromethoxy)phenyl)-1H-1,2,4-triazol-3-yl)phenyl)butyl)urea] | 0% | 0 to 50% | D (No activity noticed in this bioassay) | – | – |
| O=C(Nc1ccc(-c2ncn(-c3ccc(OC(F)(F)F)cc3)n2)cc1)Nc1ccccc1C(F)(F)F [F64, 1-(4-(1-(4-(trifluoromethoxy)phenyl)-1H-1,2,4-triazol-3-yl)phenyl)-3-(2-(trifluoromethyl)phenyl)urea] | 50 to 100% | 50 to 100% | B (More than 0 - Less than 80) | – | – |
| O=C(Nc1ccc(-c2ncn(-c3ccc(OC(F)(F)F)cc3)n2)cc1)Nc1ccccc1-c1cccnc1 [F62, 1-(2-(Pyridin-3-yl)phenyl)-3-(4-(1-(4-(trifluoromethoxy)phenyl)-1H-1,2,4-triazol-3-yl)phenyl)urea] | 50 to 100% | 50 to 100% | B (More than 0 - Less than 80) | – | – |
| CSc1ccccc1-c1cccnc1NC(=O)Nc1ccc(-c2ncn(-c3ccc(OC(F)(F)F)cc3)n2)cc1 [F59, 1-(3-(2-(Methylthio)phenyl)pyridin-2-yl)-3-(4-(1-(4-(trifluoromethoxy)phenyl)-1H-1,2,4-triazol-3-yl)phenyl)urea] | 50 to 100% | 50 to 100% | D (No activity noticed in this bioassay) | – | – |
| FC(F)(F)Oc1ccc(-n2cnc(-c3ccc(NC(=S)Nc4ccccc4-c4nnco4)cc3)n2)cc1 [F44, 1-(2-(1,3,4-Oxadiazol-2-yl)phenyl)-3-(4-(1-(4-(trifluoromethoxy)phenyl)-1H-1,2,4-triazol-3-yl)phenyl)thiourea] | 0% | 0% | D (No activity noticed in this bioassay) | – | – |
| CCc1ccccc1NC(=O)NCCCc1ccc(-c2ncn(-c3ccc(OC(F)(F)F)cc3)n2)cc1 [F86, 1-(2-Ethylphenyl)-3-(3-(4-(1-(4-(trifluoromethoxy)phenyl)-1H-1,2,4-triazol-3-yl)phenyl)propyl)urea] | 50 to 100% | 50 to 100% | A (80-100) | – | – |
| O=C(NCCCc1ccc(-c2ncn(-c3ccc(OC(F)(F)F)cc3)n2)cc1)Nc1cccc(Cl)c1 [F85, 1-(3-Chlorophenyl)-3-(3-(4-(1-(4-(trifluoromethoxy)phenyl)-1H-1,2,4-triazol-3-yl)phenyl)propyl)urea] | 50 to 100% | 50 to 100% | A (80-100) | – | – |
| CC(C)c1ccccc1NC(=O)Nc1ccc(-c2ncn(-c3ccc(OC(F)(F)C(F)(F)F)cc3)n2)cc1 [F54, 1-(2-Isopropylphenyl)-3-(4-(1-(4-(perfluoroethoxy)phenyl)-1H-1,2,4-triazol-3-yl)phenyl)urea] | 50 to 100% | 50 to 100% | D (No activity noticed in this bioassay) | – | – |
| COc1cccc(NC(=O)NCc2ccc(-c3ncn(-c4ccc(OC(F)(F)F)cc4)n3)cc2)c1 [F107, 1-(3-Methoxyphenyl)-3-(4-(1-(4-(trifluoromethoxy)phenyl)-1H-1,2,4-triazol-3-yl)benzyl)urea] | 0% | 0% | B (More than 0 - Less than 80) | – | – |
| CC(C)c1ccccc1NC(=S)NCc1ccc(-c2ncn(-c3ccc(OC(F)(F)F)cc3)n2)cc1 [F45, 1-(2-isopropylphenyl)-3-(4-(1-(4-(trifluoromethoxy)phenyl)-1H-1,2,4-triazol-3-yl)benzyl)thiourea] | 50 to 100% | 0 to 50% | A (80-100) | – | – |
| O=C(Nc1ccc(-c2ncn(-c3ccc(OC(F)(F)F)cc3)n2)cc1)Nc1ccccc1-c1cc(F)c(F)c(F)c1 [F9, 1-(3′,4′,5′-Trifluoro-[1,1′-biphenyl]-2-yl)-3-(4-(1-(4-(trifluoromethoxy)phenyl)-1H-1,2,4-triazol-3-yl)phenyl)urea] | 50 to 100% | 50 to 100% | D (No activity noticed in this bioassay) | – | – |
